Data as given in US20050113283A1, “Methods of treating conditions associated with an EDG-4 receptor” (priority 2002, published 2005).
Blank lines part the entries; values can stand above or below the compound they belong to.

Tests used:
Potassium channel [KATP] = target: T1, Potassium channel [KATP] (Cricetus cricetus, UniProt Q09427); experiment: Radioligand binding Potassium Channel [KATP]; design: species or system Syrian hamster; details: 10 μM; significance ≧50%
T1 construct: endogenous in cells; host or cells: HIT-T15 Syrian hamster pancreatic beta cells
Procedure: Source: Syrian hamster pancreatic beta cells HIT-T15
Ligand: 5 nM ^3H Glyburide
Incubation Time/Temp: 2 hours at 25° C.
Incubation Buffer: 50 mM MOPS, 0.1 mM CaCl2, pH 7.4
NonSpecific Ligand: 10 μM Glyburide
Quantitation Method: Radioligand Binding
Significance Criteria: ≧50% of max stimulation or inhibition

human Edg-4 receptor [1] = experiment: Calcium mobilization assay (FLIPR), HTC rat hepatoma cells transfected with human Edg-4; format: cell-based; details: antagonists; Edg-4 relative to other Edg receptors
From the text: (§1) LPA receptors such as Edg-4, couple to calcium effector pathways, and result in increases in intracellular calcium following receptor activation (An et al., Molecular Pharmacology, 54:881-888, 1998, incorporated herein by reference). This biological response lends itself to a very efficient, high-throughput screen using a Fluorescence Imaging Plate Reader (FLIPR; Molecular Devices, Sunnyvale, Calif.). The FLIPR system is a real-time, cell-based assay system with continuous fluorescence detection using a cooled CCD camera. The FLIPR system was used to developing an Edg-4 receptor screen. Rat hepatoma cells stably expressing Edg-4 receptor were plated on 384-well plates and loaded with a calcium dye loading kit (Molecular Devices, Sunnyvale, Calif.) for 1 hour at room temperature. Cells were then placed on the FLIPR^354 (Molecular Devices, Sunnyvale, Calif.) and excited by an argon laser at 488 nm. The data for the entire 384-well plate was updated every second. An integrated robotic pipettor allowed for simultaneous compound addition into each individual well in the plate.

PLA2-II = target: T2, PLA2-II (Crotalus atrox, UniProt P00624); experiment: Enzyme assay Phospholipase PLA2-II; format: biochemical; details: 300 μM; significance >50%
T2 construct: Source: Crotalus atrox; from tissue
T2 sequence (P00624 17-138): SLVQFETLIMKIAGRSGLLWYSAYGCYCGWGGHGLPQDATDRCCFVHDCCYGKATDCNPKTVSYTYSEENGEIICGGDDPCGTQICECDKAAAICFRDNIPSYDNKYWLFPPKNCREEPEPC
Procedure: 8. Phospholipase PLA2-II (Katsumata et al., 1986, Anal. Biochem. 154:676-681).
Substrate: 0.03 μCi 1 -Palmitoyl-2-[1-^14C]oleoyl-3-phosphatidylcholine
Pre-Incubation Time/Temp: 5 minutes at 37° C.
Incubation Time/Temp: 5 minutes at 37° C.
Incubation Buffer: 0.1M glycine-NaOH, […], pH 9.0
Quantitation Method: Quantitation of [^14C]oleate
Significance Criteria: >50% of max stimulation or inhibition

PLC = target: T3, PLC (Bacillus cereus, UniProt P09598); experiment: Enzyme assay Phospholipase PLC; format: biochemical; details: 10 μM
T3 construct: Source: Bacillus cereus; host or cells: Bacillus cereus
Procedure: 9. Phospholipase PLC (Hergenrother et al, 1995, Anal. Biochem. 229:313-316).
Substrate: 400 μM 1,2-Dihexanoyl sn-glycerol-3-phosphocholine
Pre-Incubation Time/Temp: 10 minutes at 37° C.
Incubation Time/Temp: 5 minutes at 37 ° C.
Incubation Buffer: 0.1 M 3,3-dimethylglutaric acid, pH 7.3
Quantitation Method: Spectrophotometric quantitation of phosphorylcholine

human Edg-4 receptor [2] = target: T4, human Edg-4 receptor (Homo sapiens, UniProt Q9HBW0); experiment: Calcium mobilization assay (FLIPR), HTC rat hepatoma cells transfected with human Edg-4; format: cell-based
T4 construct: IC50 Edg-4; other: agonist, calcium mobilization; potency relative to compound 101; calcium response (agonist)
From the text: as §1

Edg-2 = target: T5, Edg-2 (Homo sapiens, UniProt Q92633); experiment: Calcium mobilization assay (FLIPR), HTC cells expressing Edg 2; format: cell-based; details: inhibition
T5 construct: expressed in transfected cells; host or cells: HTC rat hepatoma cells (from the earlier reading)

Edg-5 = target: T6, Edg-5 (Homo sapiens, UniProt O95136); experiment: Calcium mobilization assay (FLIPR), HTC cells expressing Edg 5; format: cell-based; details: inhibition
T6 construct: expressed in transfected cells; host or cells: HTC rat hepatoma cells (from the earlier reading)

Edg-7 = target: T7, Edg-7 (Homo sapiens, UniProt Q9UBY5); experiment: Calcium mobilization assay (FLIPR), HTC cells expressing Edg 7; format: cell-based; details: inhibition, calcium mobilization
T7 construct: expressed in transfected cells; host or cells: HTC rat hepatoma cells (from the earlier reading)
T7 sequence (Q9UBY5 1-353): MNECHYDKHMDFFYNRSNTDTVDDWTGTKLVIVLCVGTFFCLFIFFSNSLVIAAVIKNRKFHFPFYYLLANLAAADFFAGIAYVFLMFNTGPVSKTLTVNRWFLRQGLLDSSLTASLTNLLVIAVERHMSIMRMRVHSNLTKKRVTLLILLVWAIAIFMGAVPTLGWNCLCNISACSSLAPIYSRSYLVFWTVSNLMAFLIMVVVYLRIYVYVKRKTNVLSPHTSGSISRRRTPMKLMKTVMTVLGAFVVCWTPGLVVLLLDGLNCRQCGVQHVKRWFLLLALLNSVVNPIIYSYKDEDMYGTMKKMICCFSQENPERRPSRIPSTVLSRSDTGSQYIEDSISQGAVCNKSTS

Edg-8 = target: T8, Edg-8 (Homo sapiens, UniProt Q9H228); experiment: Calcium mobilization assay (FLIPR), HTC cells expressing Edg 8; format: cell-based; details: inhibition
T8 construct: expressed in transfected cells; host or cells: HTC rat hepatoma cells (from the earlier reading)

Edg-3 = target: T9, Edg-3 (Homo sapiens, UniProt Q99500); experiment: Calcium mobilization assay (FLIPR), HTC cells expressing Edg 3; format: cell-based; details: inhibition
T9 construct: expressed in transfected cells; host or cells: HTC rat hepatoma cells (from the earlier reading)

Edg-1 = target: T10, Edg-1 (Homo sapiens, UniProt P21453); experiment: Calcium mobilization assay (FLIPR), HTC cells expressing Edg 1; format: cell-based; details: inhibition
T10 construct: expressed in transfected cells; host or cells: HTC rat hepatoma cells (from the earlier reading)

HUVEC cells = experiment: Migration assay, SIP induced chemotaxis; format: cell-based, human; details: FIG. 10
Procedure: Cells were plated in a 24 well format using Fluoroblok filter insert plates ([…]) or Fluoroblok matrigel coated filter insert plates (Becton Dickinson, San Diego, Calif.). The assay was a modified Boyden Chamber assay in which a cell suspension (1 ×10^5 cells/ml) was prepared in serum free medium and added to the top chamber. LPA or SIP (doses ranged from 0.1-10 μM in serum free medium) was added to the bottom chamber. Following a 20-24 hour incubation period, the number of cells migrating or invading into the lower chamber was quantitated by transferring the filter insert into a fresh 24-well plate containing 4 μg/ml calcein AM (Molecular Probes, Sunnyvale, Calif.) in Hank's Balanced Salt Solution and staining for one hour.
Detection was via fluorescent readout at 450 nm excitation/530 nm emission using a fluorimeter. The level of fluorescence correlated with cell number.

Edg-6 = target: T11, Edg-6 (Homo sapiens, UniProt O95977); experiment: Calcium mobilization assay (FLIPR), HTC cells expressing Edg 6; format: cell-based; details: inhibition
T11 construct: expressed in transfected cells; host or cells: HTC rat hepatoma cells (from the earlier reading)
T11 sequence (O95977 1-384): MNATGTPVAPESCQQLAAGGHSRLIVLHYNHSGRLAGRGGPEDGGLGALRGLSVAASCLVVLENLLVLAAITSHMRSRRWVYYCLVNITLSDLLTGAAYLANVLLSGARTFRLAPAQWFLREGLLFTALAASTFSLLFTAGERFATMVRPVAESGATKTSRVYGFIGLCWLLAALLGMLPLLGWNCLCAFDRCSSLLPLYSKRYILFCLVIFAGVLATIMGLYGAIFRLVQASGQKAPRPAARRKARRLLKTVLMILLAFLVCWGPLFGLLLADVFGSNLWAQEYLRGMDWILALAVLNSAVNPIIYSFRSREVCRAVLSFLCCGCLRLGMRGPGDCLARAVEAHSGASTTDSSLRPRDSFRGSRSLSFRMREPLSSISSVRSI

mouse Edg-4 receptor = target: T12, mouse Edg-4 receptor (Mus musculus, UniProt Q9JL06); experiment: LPA induced calcium mobilization, HTC cells transfected with pooled mouse Edg-4 clones; format: cell-based; details: pooled HTC population, FIG. 13
T12 construct: expressed in transfected cells; host or cells: HTC rat hepatoma cells, pooled population
From the text: as §1

rat Edg-4 receptor = experiment: LPA induced calcium mobilization, HTC cells transfected with pooled rat Edg-4 clones; format: cell-based; details: pooled HTC population, FIG. 12
From the text: as §1

T4 sequence (Q9HBW0 1-340 limits assumed): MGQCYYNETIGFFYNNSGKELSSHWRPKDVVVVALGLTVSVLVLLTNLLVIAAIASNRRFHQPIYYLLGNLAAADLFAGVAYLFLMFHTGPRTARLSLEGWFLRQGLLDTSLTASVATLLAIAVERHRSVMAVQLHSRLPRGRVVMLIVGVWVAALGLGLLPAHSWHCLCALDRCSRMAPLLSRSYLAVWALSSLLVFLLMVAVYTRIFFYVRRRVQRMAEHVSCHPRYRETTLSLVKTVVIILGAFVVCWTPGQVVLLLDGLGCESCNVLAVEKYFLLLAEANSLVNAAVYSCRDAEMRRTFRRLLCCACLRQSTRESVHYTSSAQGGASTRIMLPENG
T3 sequence (P09598 39-283 limits assumed): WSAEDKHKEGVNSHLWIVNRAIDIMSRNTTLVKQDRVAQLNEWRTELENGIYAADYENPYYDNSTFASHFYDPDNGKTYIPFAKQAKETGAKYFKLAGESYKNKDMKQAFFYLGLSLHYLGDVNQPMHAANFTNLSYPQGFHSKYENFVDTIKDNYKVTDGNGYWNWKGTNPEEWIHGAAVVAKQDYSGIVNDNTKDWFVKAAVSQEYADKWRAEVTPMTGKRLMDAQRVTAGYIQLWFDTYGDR
T8 sequence (Q9H228 whole entry): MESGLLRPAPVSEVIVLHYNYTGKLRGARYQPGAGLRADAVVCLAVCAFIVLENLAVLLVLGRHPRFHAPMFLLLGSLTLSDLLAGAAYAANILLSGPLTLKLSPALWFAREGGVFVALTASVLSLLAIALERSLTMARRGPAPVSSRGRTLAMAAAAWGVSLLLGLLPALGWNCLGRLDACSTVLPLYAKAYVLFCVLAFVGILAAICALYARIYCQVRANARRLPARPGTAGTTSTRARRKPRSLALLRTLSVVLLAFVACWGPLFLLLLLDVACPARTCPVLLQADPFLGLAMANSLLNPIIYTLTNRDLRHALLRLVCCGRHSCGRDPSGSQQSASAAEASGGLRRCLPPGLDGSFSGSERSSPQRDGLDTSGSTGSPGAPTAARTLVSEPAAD
T6 sequence (O95136 whole entry): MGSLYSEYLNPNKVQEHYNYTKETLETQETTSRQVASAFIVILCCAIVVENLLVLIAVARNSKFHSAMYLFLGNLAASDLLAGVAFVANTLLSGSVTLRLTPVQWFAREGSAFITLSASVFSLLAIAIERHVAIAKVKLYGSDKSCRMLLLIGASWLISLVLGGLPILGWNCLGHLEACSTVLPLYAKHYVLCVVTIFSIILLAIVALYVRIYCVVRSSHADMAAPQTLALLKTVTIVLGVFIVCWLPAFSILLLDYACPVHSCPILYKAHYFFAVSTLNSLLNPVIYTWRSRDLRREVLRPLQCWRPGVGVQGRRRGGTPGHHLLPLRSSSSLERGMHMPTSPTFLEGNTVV
T10 sequence (P21453 whole entry): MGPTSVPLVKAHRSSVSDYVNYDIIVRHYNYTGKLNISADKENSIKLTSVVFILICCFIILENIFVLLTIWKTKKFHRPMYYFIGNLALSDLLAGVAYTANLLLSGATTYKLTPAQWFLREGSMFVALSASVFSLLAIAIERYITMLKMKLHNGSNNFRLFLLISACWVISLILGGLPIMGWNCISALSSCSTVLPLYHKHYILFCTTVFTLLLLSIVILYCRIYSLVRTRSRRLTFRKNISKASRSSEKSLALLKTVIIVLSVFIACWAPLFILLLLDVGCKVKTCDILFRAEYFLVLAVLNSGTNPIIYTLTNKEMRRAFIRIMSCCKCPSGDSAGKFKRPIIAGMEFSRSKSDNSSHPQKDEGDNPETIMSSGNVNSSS
T5 sequence (Q92633 whole entry): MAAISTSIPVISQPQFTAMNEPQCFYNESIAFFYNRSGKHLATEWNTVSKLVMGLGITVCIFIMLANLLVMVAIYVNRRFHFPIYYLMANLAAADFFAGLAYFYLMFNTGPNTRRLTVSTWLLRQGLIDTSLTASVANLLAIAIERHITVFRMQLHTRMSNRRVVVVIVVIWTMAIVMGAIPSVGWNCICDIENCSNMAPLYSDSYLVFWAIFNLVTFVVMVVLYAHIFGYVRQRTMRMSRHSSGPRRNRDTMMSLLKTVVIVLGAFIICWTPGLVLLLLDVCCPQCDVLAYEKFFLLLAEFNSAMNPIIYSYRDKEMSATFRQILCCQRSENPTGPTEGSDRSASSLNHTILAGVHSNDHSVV
T9 sequence (Q99500 whole entry): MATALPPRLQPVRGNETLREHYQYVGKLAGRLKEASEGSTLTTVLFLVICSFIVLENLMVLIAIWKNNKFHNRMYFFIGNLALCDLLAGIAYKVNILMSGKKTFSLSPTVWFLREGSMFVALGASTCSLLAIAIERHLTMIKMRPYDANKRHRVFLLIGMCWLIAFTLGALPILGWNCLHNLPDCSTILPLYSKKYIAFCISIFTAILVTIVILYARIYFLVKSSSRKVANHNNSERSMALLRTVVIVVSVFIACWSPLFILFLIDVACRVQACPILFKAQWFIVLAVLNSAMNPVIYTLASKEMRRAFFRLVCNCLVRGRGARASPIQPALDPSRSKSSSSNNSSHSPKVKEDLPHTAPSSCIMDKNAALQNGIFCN
T1 sequence (Q09427 whole entry): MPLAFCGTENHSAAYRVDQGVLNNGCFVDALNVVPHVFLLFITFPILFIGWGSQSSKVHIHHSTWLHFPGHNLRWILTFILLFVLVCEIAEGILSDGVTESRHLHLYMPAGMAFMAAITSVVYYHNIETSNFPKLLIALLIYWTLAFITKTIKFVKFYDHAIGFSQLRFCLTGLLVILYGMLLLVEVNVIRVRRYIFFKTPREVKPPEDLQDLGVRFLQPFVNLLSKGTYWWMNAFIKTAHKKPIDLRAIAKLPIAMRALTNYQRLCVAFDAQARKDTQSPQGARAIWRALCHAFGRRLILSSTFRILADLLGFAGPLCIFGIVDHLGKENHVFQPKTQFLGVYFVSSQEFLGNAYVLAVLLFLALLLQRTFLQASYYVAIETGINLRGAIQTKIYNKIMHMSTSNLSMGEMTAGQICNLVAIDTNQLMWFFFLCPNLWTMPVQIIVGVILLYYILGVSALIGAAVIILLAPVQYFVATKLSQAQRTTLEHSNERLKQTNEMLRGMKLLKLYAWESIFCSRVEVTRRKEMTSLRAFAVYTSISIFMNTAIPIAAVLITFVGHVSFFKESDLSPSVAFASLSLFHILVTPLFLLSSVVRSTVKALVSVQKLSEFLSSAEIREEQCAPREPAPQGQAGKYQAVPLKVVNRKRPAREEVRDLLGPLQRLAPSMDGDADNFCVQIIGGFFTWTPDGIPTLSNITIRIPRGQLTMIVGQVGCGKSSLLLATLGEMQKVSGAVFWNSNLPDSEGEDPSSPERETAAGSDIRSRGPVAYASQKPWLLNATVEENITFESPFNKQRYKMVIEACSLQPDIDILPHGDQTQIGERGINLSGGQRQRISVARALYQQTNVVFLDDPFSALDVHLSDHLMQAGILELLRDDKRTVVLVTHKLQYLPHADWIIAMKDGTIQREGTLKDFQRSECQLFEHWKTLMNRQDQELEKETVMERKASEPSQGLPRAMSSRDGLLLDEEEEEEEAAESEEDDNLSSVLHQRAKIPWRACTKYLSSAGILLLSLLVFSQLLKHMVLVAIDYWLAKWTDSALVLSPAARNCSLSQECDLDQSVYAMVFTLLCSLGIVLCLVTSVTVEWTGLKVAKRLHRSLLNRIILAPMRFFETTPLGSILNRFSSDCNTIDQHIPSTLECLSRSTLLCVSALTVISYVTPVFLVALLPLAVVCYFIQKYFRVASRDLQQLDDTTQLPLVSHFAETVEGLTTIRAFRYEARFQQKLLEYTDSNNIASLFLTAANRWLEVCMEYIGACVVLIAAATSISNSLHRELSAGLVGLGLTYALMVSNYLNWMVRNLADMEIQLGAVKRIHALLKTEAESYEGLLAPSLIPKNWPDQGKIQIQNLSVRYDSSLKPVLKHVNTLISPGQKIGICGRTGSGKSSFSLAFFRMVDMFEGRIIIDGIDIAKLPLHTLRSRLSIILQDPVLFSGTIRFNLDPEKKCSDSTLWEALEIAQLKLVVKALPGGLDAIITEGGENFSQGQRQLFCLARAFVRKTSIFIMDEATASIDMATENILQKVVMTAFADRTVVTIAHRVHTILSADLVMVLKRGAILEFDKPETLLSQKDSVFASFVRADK
T12 sequence (Q9JL06 whole entry): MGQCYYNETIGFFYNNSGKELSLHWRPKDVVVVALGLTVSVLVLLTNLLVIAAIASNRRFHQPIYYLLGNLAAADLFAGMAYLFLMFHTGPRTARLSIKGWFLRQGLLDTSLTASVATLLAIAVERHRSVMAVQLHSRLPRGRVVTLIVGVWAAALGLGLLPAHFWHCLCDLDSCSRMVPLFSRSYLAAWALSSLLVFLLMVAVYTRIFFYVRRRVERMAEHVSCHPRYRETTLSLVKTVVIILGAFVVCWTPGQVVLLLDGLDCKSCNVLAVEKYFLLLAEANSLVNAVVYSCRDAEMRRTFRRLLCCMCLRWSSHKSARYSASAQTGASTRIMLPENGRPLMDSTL

Compound: O=C1NN=C(c2ccccc2)C(c2c[nH]c3ccccc23)N1 (single isomer, unassigned; (+)) [(+)-121, (+)-5-(1H-Indol-3-yl)-6-phenyl-4,5-dihydro-2H-[1,2,4]triazin-3-one]
melting point: 281 °C

Compound: O=C(CC(=O)C(F)(F)F)Nc1cc(-c2ccccc2)n[nH]1 [Compound 101, 4,4,4-trifluoro-3-oxo-N-(5-phenyl-2H-pyrazol-3-yl)-butyramide]
activity at Potassium channel [KATP] (Potassium channel [KATP]): no significant activity
Fold-selectivity for Edg-4 (IC50) (human Edg-4 receptor [1]): >29.9
activity at PLA2-II (PLA2-II): no significant activity
activity at PLC (PLC): no significant activity

The next lines start with results.

IC50 (human Edg-4 receptor [2]; inhibition, calcium mobilization): 0.32 µM
Fold-selectivity for Edg-4 (IC50) (human Edg-4 receptor [1]): >62.5
IC50 (Edg-2): > 20 µM
IC50 (Edg-5): > 20 µM
IC50 (Edg-7): > 20 µM
IC50 (Edg-8): > 20 µM
IC50 (Edg-3): > 20 µM
IC50 (Edg-1): > 20 µM
IC50 (Edg-6): > 20 µM
Compound: O=C(CC(=O)C(F)(F)F)Nc1cc(-c2ccc(Cl)c(Cl)c2)n[nH]1 [Compound 103, N-[5-(3,4-dichloro-phenyl)-2H-pyrazol-3-yl]4,4,4-trifluoro-3-oxo-butyramide]
inhibition of SIP induced chemotaxis (HUVEC cells): did not inhibit

potency relative to compound 101 (human Edg-4 receptor [2]; dose response curve, FIG. 2): less potent than compound 101
Compound: COc1ccc(-c2cc(NC(=O)CC(=O)C(F)(F)F)[nH]n2)cc1 [Compound 105, 4,4-4-trifluoro-N-[5-(4-methoxy-phenyl)-2-pyrazol-3-yl]-3-oxo-butyramide]

inhibition of LPA-induced calcium mobilization, human Edg-4 (human Edg-4 receptor [2]; clonal HTC cell line, FIG. 11): dose dependent inhibition
inhibition of LPA-induced calcium mobilization, mouse Edg-4 (mouse Edg-4 receptor): dose dependent inhibition
Compound: O=C(CC(=O)C(F)(F)F)Nc1cc(-c2ccc(F)cc2)n[nH]1 [Compound 107]
inhibition of LPA-induced calcium mobilization, rat Edg-4 (rat Edg-4 receptor): dose dependent inhibition
